Experiments:
[1] = test system: ptosis observed one hour after an intravenous injection (2 mg/kg) of reserpine; experiment: Test B: antagonism of the ptosis caused by reserpine in mice; format: in vivo; details: Mus musculus, po, 1 h, p.o., reserpine 2 mg/kg intravenous, read-out: Test B ED 50
Procedure: Antagonism with respect to the ptosis observed one hour after an intravenous injection (2 mg/kg) of reserpine given to mice, following the protocol described by C.

[2] = test system: generalized trembling caused by an interperitoneal injection (200 mg/kg) of dl-5-hydroxytryptophane; experiment: Test A: potentiation in mice of generalized trembling caused by dl-5-hydroxytryptophane; format: in vivo; details: Mus musculus, po, dl-5-hydroxytryptophane 200 mg/kg intraperitoneal, read-out: Test A ED 50
Procedure: Potentiation in mice of generalized trembling caused by an interperitoneal injection (200 mg/kg) of dl-5-hydroxytryptophane, following the protocol described by C. GOURET and G. RAYNAUD in J. Pharmacol. (Paris), (1974) 5, 231.

Acute toxicity in mice = details: mouse, in vivo, po, 1000 mg/kg
[3] = test system: pontogeniculo-occipital points (P.G.O.) caused by an intravenous injection (0.5 mg/kg) of reserpine; experiment: Test C: reduction in the density of pontogeniculo-occipital points (P.G.O.) caused by reserpine in cats; format: in vivo; details: Felis catus, ip, reserpine 0.5 mg/kg intravenous, read-out: Test C ED 50
Procedure: Reduction in the density of pontogeniculo-occipital points (P.G.O.) caused by an intravenous injection (0.5 mg/kg) of reserpine given to cats, following the protocol described by A. COSTON and C. GOURET in J. Pharmacol. (Paris) (1976), 7, 409.

Compound | ED50 [1] [mg/kg] | ED50 [2] [mg/kg] | mortality (Acute toxicity in mice) [%] | ED50 [3] [mg/kg]
N#Cc1cccc(COc2ccc(N3CC(CO)OC3=O)cc2)c1 (centres unmarked) [770 222] | 1.2 | 2.8 | 0 | 5.2
O=C1OC(CO)CN1c1ccc(OCc2cccc([N+](=O)[O-])c2)cc1 (centres unmarked) [770 234] | 0.7 | 1.5 | 0 | 9

From patent publication US4338451A, “5-Hydroxymethyl oxazolidinones” (Delalande S.A., priority 1977, dated 1982)
